Some test systems named below: XF 498 CNS; DMS 273 small cell lung; DMS 114 small cell lung; SNB-78 CNS; LXFL 529 NSCLC; HOP-18 NSCLC; KM20L2 colon; DLD-1 colon; M19-MEL melanoma; RXF-631 renal.
Experiment in all cases: NCI tumour cell line growth inhibition, 48 h

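Grown in 96-well plates, cells were treated for 48 hours with each compound at five concentrations. Insufficient inhibition: endpoint recorded as highest concentration tested. At the TGI there is no net growth.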 Some results are limits rather than exact numbers.

As to `C/C(CN1C(=O)c2ccccc2C1=O)=N\NS(=O)(=O)c1ccc(F)cc1`, the TGI in the assay on XF 498 CNS, with DMS 273 small cell lung, in the assay with DMS 114 small cell lung, in the assay with SNB-78 CNS, in the assay on LXFL 529 NSCLC and in the assay on HOP-18 NSCLC was > 100 µM throughout. In addition, the TGI in the assay on KM20L2 colon and with DLD-1 colon was > 100 µM in each case.

For the compound `COc1cccc(/C=C2\C(=O)N(C(=O)Cc3ccccc3)N=C2C)c1`, the TGI with M19-MEL melanoma, with XF 498 CNS, with DMS 273 small cell lung, with DMS 114 small cell lung, in the assay with SNB-78 CNS and in the assay on HOP-18 NSCLC was > 100 µM throughout. In the assay with DLD-1 colon, the TGI was > 100 µM.

Turning to `Cn1c2c(cc(-c3ccccc3)c1=O)COc1ccccc1-2`, the TGI with M19-MEL melanoma was 64.2 µM; with XF 498 CNS, 26.1 µM; with DMS 273 small cell lung it was 43.8 µM; with DMS 114 small cell lung it was 36.2 µM; in the assay on SNB-78 CNS it was > 100 µM; in the assay on LXFL 529 NSCLC, > 100 µM. Also, the TGI in the assay on HOP-18 NSCLC, in the assay with KM20L2 colon and in the assay on DLD-1 colon was > 100 µM each time.

On to `COCC12CC(CC1=O)C1C2ON2c3ccccc3C(=O)C12c1ccccc1` (stereo unspecified), for which the TGI with XF 498 CNS, in the assay with DMS 273 small cell lung, in the assay on DMS 114 small cell lung, in the assay with SNB-78 CNS, with LXFL 529 NSCLC and in the assay with HOP-18 NSCLC was > 100 µM in each case. The TGI in the assay with KM20L2 colon and in the assay with DLD-1 colon was > 100 µM in each case.

`Cn1c(N)c(-c2c3ccccc3nc3ccccc23)c(=O)n(C)c1=O`: the TGI in the assay on M19-MEL melanoma, in the assay with DMS 114 small cell lung, in the assay with LXFL 529 NSCLC, in the assay on HOP-18 NSCLC and with KM20L2 colon was > 100 µM throughout.

For the compound `CCCOCN1COCN=C1NC#N`, the TGI was 88.1 µM in the assay with M19-MEL melanoma; > 100 µM in the assay with XF 498 CNS; 41.9 µM in the assay with DMS 273 small cell lung; 39.7 µM with DMS 114 small cell lung; > 100 µM with SNB-78 CNS; > 100 µM with LXFL 529 NSCLC. In addition, the TGI in the assay on HOP-18 NSCLC, in the assay with KM20L2 colon and in the assay with DLD-1 colon was > 100 µM in each case.

With `CCOC(=O)c1cn2c([nH]c3ccccc32)c(C#N)c1=O`, the TGI in the assay on M19-MEL melanoma, in the assay on XF 498 CNS, in the assay with DMS 273 small cell lung, with SNB-78 CNS, with LXFL 529 NSCLC and with HOP-18 NSCLC was > 100 µM throughout. In addition, the TGI in the assay with KM20L2 colon, in the assay on DLD-1 colon and in the assay with RXF-631 renal was > 100 µM each time.

`CC1=NN(c2ccccc2)C(=O)C1=C1SCCCS1`: the TGI is > 100 µM in the assay on M19-MEL melanoma; 58.6 µM in the assay with XF 498 CNS; > 100 µM in the assay on DMS 273 small cell lung; 45.2 µM in the assay on DMS 114 small cell lung; > 100 µM in the assay with SNB-78 CNS; > 100 µM in the assay with LXFL 529 NSCLC. The results for the TGI in the assay on HOP-18 NSCLC, in the assay on KM20L2 colon and with DLD-1 colon were > 100 µM, > 100 µM and 45.9 µM, respectively.

`Nc1ccc(C(=O)NN2C(=O)C(Cl)C2c2cccc([N+](=O)[O-])c2)cc1` (stereo unspecified): the TGI in the assay on M19-MEL melanoma is 34.1 µM; in the assay on XF 498 CNS, 26.5 µM; in the assay with DMS 273 small cell lung, 32.5 µM; in the assay with DMS 114 small cell lung it was 36.5 µM; in the assay on SNB-78 CNS, > 100 µM; in the assay with LXFL 529 NSCLC, 34.9 µM. Further, the values for the TGI in the assay on KM20L2 colon and in the assay on DLD-1 colon were 43.6 µM and 34.7 µM, respectively.

As for `CO[C@H](c1ccccc1)[C@H](C)N(C)c1ccc2ccccc2c1C1=NC(C)(C)CO1`, the TGI is 36.6 µM in the assay with M19-MEL melanoma; 33.5 µM in the assay on XF 498 CNS; 39.2 µM in the assay on DMS 273 small cell lung; 33.7 µM in the assay with DMS 114 small cell lung; 49.6 µM with LXFL 529 NSCLC; 31.9 µM in the assay with HOP-18 NSCLC. The TGI with KM20L2 colon worked out at 27.4 µM; in the assay with DLD-1 colon it was 31.8 µM; in the assay with RXF-631 renal, 39.8 µM.

For the compound `COC1=CC(=O)c2ccccc2C1(C)C1=NC(C)(C)CO1` (stereo unspecified), the TGI in the assay on M19-MEL melanoma, with XF 498 CNS, in the assay on DMS 273 small cell lung, with DMS 114 small cell lung, in the assay on LXFL 529 NSCLC and in the assay on HOP-18 NSCLC was > 100 µM throughout. Further, the TGI with KM20L2 colon, in the assay with DLD-1 colon and with RXF-631 renal was > 100 µM throughout.

In the case of `C[N+](C)(Cc1ccc(NC(=O)CCCC(=O)ON2C(=O)CCC2=O)cc1)c1ccccc1`, the TGI in the assay with M19-MEL melanoma was > 100 µM; in the assay on DMS 273 small cell lung, > 100 µM; with LXFL 529 NSCLC, > 100 µM; in the assay on HOP-18 NSCLC it was < 0.01 µM; in the assay on DLD-1 colon, > 100 µM.

Take `O=S(Cc1cc2c(cc1Br)OCO2)c1ccccc1` (stereo unspecified): the TGI was > 100 µM in the assay with M19-MEL melanoma; > 100 µM in the assay with DMS 273 small cell lung; 61.8 µM in the assay with DMS 114 small cell lung; > 100 µM in the assay on SNB-78 CNS; > 100 µM in the assay on LXFL 529 NSCLC; > 100 µM in the assay on HOP-18 NSCLC. The figures for the TGI with KM20L2 colon and in the assay with DLD-1 colon were > 100 µM and 49.5 µM, respectively.

As for `CCCCCC(=O)Cc1cc(OC)cc2c1C(=O)Oc1cc(O)c(C(=O)O)c(CC(=O)CCCCC)c1O2`, the TGI in the assay with M19-MEL melanoma was 69.6 µM; in the assay on XF 498 CNS it was > 100 µM; in the assay with DMS 273 small cell lung, > 100 µM; in the assay with DMS 114 small cell lung, > 100 µM; in the assay with SNB-78 CNS, > 100 µM; in the assay with LXFL 529 NSCLC it was > 100 µM. Moreover, the TGI with KM20L2 colon, with DLD-1 colon and in the assay on RXF-631 renal was > 100 µM in each case.

Take `COC(=O)c1cc(C)n(NC(=O)OC(C)(C)C)c1C`: the TGI in the assay on M19-MEL melanoma, with DMS 273 small cell lung, with DMS 114 small cell lung, in the assay with SNB-78 CNS, in the assay with LXFL 529 NSCLC and with KM20L2 colon was > 100 µM each time. For the same compound, the TGI with DLD-1 colon is > 100 µM.

For `C1=c2ccccc2=C2C(=C(c3ccccc3)C(c3ccccc3)=NN2c2ccccc2)S1`, the TGI in the assay on M19-MEL melanoma, with DMS 273 small cell lung, with DMS 114 small cell lung, in the assay with SNB-78 CNS, with LXFL 529 NSCLC and with HOP-18 NSCLC was > 100 µM each time. Besides, the TGI in the assay on KM20L2 colon and with DLD-1 colon was > 100 µM in each case.

Regarding `COc1cc(C2C(Cl)C(=O)N2NC(=O)Cc2ccccc2)ccc1O` (stereo unspecified), the TGI in the assay with M19-MEL melanoma, with XF 498 CNS, with DMS 273 small cell lung, in the assay with DMS 114 small cell lung, in the assay with SNB-78 CNS and in the assay with LXFL 529 NSCLC was > 100 µM in each case. The TGI with HOP-18 NSCLC, with KM20L2 colon and with DLD-1 colon was > 100 µM throughout.

`CCCCCn1cnc2c1S(=O)(=O)N(C)C(NC(=O)c1ccccc1)=N2`: the TGI in the assay with M19-MEL melanoma, with DMS 273 small cell lung, in the assay on DMS 114 small cell lung, with SNB-78 CNS, with LXFL 529 NSCLC and in the assay on KM20L2 colon was > 100 µM in each case. In addition, the TGI in the assay with DLD-1 colon is > 100 µM.

Regarding `COc1ccc(C2C(Cl)C(=O)N2NC(=O)c2ccc(N)cc2)cc1OC` (stereo unspecified), the TGI was 16.1 µM in the assay with M19-MEL melanoma; 2.3 µM in the assay on XF 498 CNS; 11.8 µM in the assay with DMS 273 small cell lung; > 100 µM with SNB-78 CNS; 3.78 µM in the assay with LXFL 529 NSCLC; 27.8 µM in the assay with KM20L2 colon. The compound also registered a TGI with DLD-1 colon of 15.4 µM.

Consider `COc1ccc(C2S/C(=C\c3cccc(O)c3)C(=O)N2NC(=O)Cc2ccccc2)cc1` (stereo unspecified), for which the TGI in the assay with M19-MEL melanoma, in the assay on DMS 273 small cell lung, with DMS 114 small cell lung, in the assay on LXFL 529 NSCLC, in the assay with HOP-18 NSCLC and in the assay on DLD-1 colon was > 100 µM each time.

The record behind these values is PubChem BioAssay (NCI).
